Test results taken from US20260159481A1, “INDOLE DERIVATIVE WITH SUBSTITUENT AND PHARMACEUTICAL USE” (MITOIMMUNE THERAPEUTICS INC., priority 2023, published 2026).

What was measured:
[1] = Pharmacokinetics in plasma after oral administration to ICR mice; type: in vivo; settings: oral 10 mg/kg, plasma
Experimental: Pharmacokinetic parameters may include the maximum plasma concentration (Cmax), the time to reach the maximum plasma concentration (Tmax), the area under the plasma concentration-time curve (AUCinf), and a half-life (t1/2).
Example Compound 27 was orally administered to ICR mice at a dose of 10 mg/kg. Drug concentrations in the plasma of mice were measured by HPLC-MS/MS spectroscopy 0.5, 1, 2, 4, 8, or 24 hours after administration.
The comparative example compound was orally administered to ICR mice at a dose of 10 mg/kg. The drug concentrations in the plasma of the mice were measured by HPLC-MS/MS 0.5, 1, 2, 4, 8, or 24 hours after administration.

[2] = tested on: cardiac cells (H9C2); assay: Protective effect against t-BHP-induced cell death in cardiac cells (LDH release); type: cell-based; settings: Rattus norvegicus, t-BHP 400 PM, 2 hours, read-out: EC50, protective effect against cell death due to t-BHP induction
Experimental: To confirm a protective effect on cardiac cells, H9C2 cells were seeded at 1.5×10^4 cells/well in a 96-well plate and cultured for 24 hours. The example compounds were diluted to have the final concentration of 0.001, 0.01, 0.03, 0.1, 0.3, 1, 3, 10, and 30 PM, respectively, and then added to different wells, and the resulting cells were cultured for 15 to 20 minutes. Tert-butyl hydroperoxide (t-BHP) was treated to have the final concentration of 400 PM, and the resulting cells were cultured for 2 hours. To confirm the cell death protection effect of each compound, the degree of extracellular secretion of lactate dehydrogenase (LDH) was measured using a cytotoxicity LDH assay kit [Dojindo; CK12]. Briefly, after 2 hours of t-BHP treatment on the cells, 70 μL of the supernatant was taken from the 96-well plate where the cells were cultured and transferred to a new 96-well plate. The assay buffer included in the kit was added at 70 μL/well (equal to that of the sample) and the plate was covered with foil to block light and allowed to react for 15 minutes at room temperature. While observing a color change of each sample, 35 μL/well of a stop solution was added, an absorbance at 490 nm was measured using an iD3 spectrophotometer, and an EC50 value was calculated.

[3] = tested on: cardiac cells (H9C2); assay: Protective effect against cell death due to RSL3 (LDH release), H9C2; type: cell-based; settings: Rattus norvegicus, RSL3 0.5 μM, 24 hours
Experimental: (§1) To confirm cell death protection effects on cardiac cells, adrenal medullary cells, renal fibroblasts, retinal epithelial cells, lung epithelial cells, renal proximal tubular epithelial cells, hippocampal neurons and fibroblasts, each type of cells were seeded at 4×10^3 to 1.2×10^4 cells/well in a 96-well plate and cultured for 18 to 24 hours. The example compounds were diluted to have the final concentration of 0.001, 0.003, 0.01, 0.3, 1, 3, and 10 μM, respectively, and then added to different wells and cultured for 15 to 20 minutes. […] To confirm the cell death protection effect of the example compounds, the degree of extracellular secretion of lactate dehydrogenase (LDH) was measured using a cytotoxicity LDH assay kit [Dojindo; CK12]. Briefly, at the end of 24-hour treatment of each type of cells with RSL3, 70 μL of the supernatant was taken from the 96-well plate where the cells were cultured and transferred to a new 96-well plate. The assay buffer included in the kit was added at 70 μL/well (equal to that of the sample) and the plate was covered with foil to block light and allowed to react for 15 to 20 minutes at room temperature. While observing a color change of the sample, 35 µL/well of a stop solution was added, an absorbance at 490 nm was measured using an iD3 spectrophotometer, and an EC50 value was calculated.

[4] = tested on: renal fibroblasts (NRK-49F); assay: Protective effect against cell death due to RSL3 (LDH release), NRK-49F; type: cell-based; settings: Rattus norvegicus, RSL3 3 μM, 24 hours
Experimental: as §1

[5] = tested on: lung epithelial cells (MLE-12); assay: Protective effect against cell death due to RSL3 (LDH release), MLE-12; type: cell-based; settings: MLE12, RSL3 1 μM, 24 hours
Experimental: as §1

[6] = tested on: retinal epithelial cells (ARPE-19); assay: Protective effect against cell death due to RSL3 (LDH release), ARPE-19; type: cell-based; settings: Homo sapiens, RSL3 0.3 μM, 24 hours
Experimental: as §1

[7] = tested on: adrenal medullary cells (PC-12); assay: Protective effect against cell death due to RSL3 (LDH release), PC-12; type: cell-based; settings: Rattus norvegicus, RSL3 0.3 μM, 24 hours
Experimental: as §1

[8] = tested on: renal proximal tubular epithelial cells (HK2); assay: Protective effect against cell death due to RSL3 (LDH release), HK2; type: cell-based; settings: Epithelial cell, RSL3 0.3 μM, 24 hours
Experimental: as §1

[9] = tested on: hippocampal neurons (HT-22); assay: Protective effect against cell death due to RSL3 (LDH release), HT-22; type: cell-based; settings: Mus musculus, RSL3 0.3 μM, 24 hours
Experimental: as §1

[10] = tested on: fibroblasts (NIH/3T3); assay: Protective effect against cell death due to RSL3 (LDH release), NIH/3T3; type: cell-based; settings: Mus musculus, NIH3T3, RSL3 3 μM, 24 hours
Experimental: as §1

## OCc1cc(NC2CCCC2)c2[nH]c(-c3ccccc3)cc2c1 [Comparative Example, [7-(cyclopentylamino)-2-phenyl-1H-indol-5-yl]methanol, reference compound]
[1]; mouse
  Cmax: 2110 ng/mL
  Tmax: 1 h
  half-life: 1.4 h
[1]; mouse, 0.5 hr
  concentration at 0.5 h: 1640 ng/mL
[1]; mouse, 1 hr
  concentration at 1 h: 2110 ng/mL
[1]; mouse, 2 hr
  concentration at 2 h: 1120 ng/mL
[1]; mouse, 4 hr
  concentration at 4 h: 389 ng/mL
[1]; mouse, 8 hr
  concentration at 8 h: 51 ng/mL
[1]
  AUCinf: 5,459 ng · hr/mL
  area under the plasma concentration-time curve (AUCinf): 5460 ng·h/mL

## c1ccc(-c2cc3cc(COCCN4CCOCC4)cc(NC4CCCC4)c3[nH]2)cc1 [Example 41, N-cyclopentyl-5-((2-morpholinoethoxy)methyl)-2-phenyl-1H-indol-7-amine]
[2]
  EC50: ≤ 300 nM
[3]
  EC50: ≤ 100 nM
[4]
  EC50: ≤ 100 nM
[5]
  EC50: ≤ 100 nM
[6]
  EC50: ≤ 100 nM
[7]
  EC50: ≤ 100 nM
[8]
  EC50: ≤ 100 nM
[9]
  EC50: ≤ 100 nM
[10]
  EC50: 100 to 1000 nM

## FC(F)COCc1cc(NC2CCOCC2)c2[nH]c(-c3ccccc3)cc2c1 [Example 40, 5-((2,2-difluoroethoxy)methyl)-2-phenyl-N-(tetrahydro-2H-pyran-4-yl)-1H-indol-7-amine]
[2]
  EC50: ≤ 300 nM
[3]
  EC50: ≤ 100 nM
[4]
  EC50: ≤ 100 nM
[5]
  EC50: ≤ 100 nM
[6]
  EC50: ≤ 100 nM
[7]
  EC50: ≤ 100 nM
[8]
  EC50: ≤ 100 nM
[9]
  EC50: ≤ 100 nM
[10]
  EC50: 100 to 1000 nM

## O=C(NC1CC1)c1cc(NCc2ccncc2)c2[nH]c(-c3ccccc3)cc2c1 [Example 8, N-cyclopropyl-2-phenyl-7-((pyridin-4-ylmethyl)amino)-1H-indole-5-carboxamide]
[2]
  EC50: ≤ 300 nM
[3]
  EC50: 100 to 1000 nM
[4]
  EC50: 100 to 1000 nM
[5]
  EC50: 100 to 1000 nM
[6]
  EC50: ≤ 100 nM
[7]
  EC50: 100 to 1000 nM
[8]
  EC50: 100 to 1000 nM
[9]
  EC50: > 1000 nM
[10]
  EC50: 100 to 1000 nM

## CC(C)(O)C#Cc1cc(NC2CCOCC2)c2[nH]c(-c3ccccc3)cc2c1 [Example 24, 2-methyl-4-(2-phenyl-7-((tetrahydro-2H-pyran-4-yl)amino)-1H-indol-5-yl)but-3-yn-2-ol]
[2]
  EC50: ≤ 300 nM

## CCN(CC)C(=O)c1cc(NCc2ccncc2)c2[nH]c(-c3ccccc3)cc2c1 [Example 4, N,N-diethyl-2-phenyl-7-((pyridin-4-ylmethyl)amino)-1H-indole-5-carboxamide]
[2]
  EC50: ≤ 300 nM

## CCNS(=O)(=O)c1cc(NCc2ccccc2)c2[nH]c(-c3ccccc3)cc2c1 [Example 21, 7-(benzylamino)-N-ethyl-2-phenyl-1H-indole-5-sulfonamide]
[2]
  EC50: > 1000 nM

## CNC(=O)Cc1cc(NC2CCOCC2)c2[nH]c(-c3ccccc3)cc2c1 [Example 15, N-methyl-2-(2-phenyl-7-((tetrahydro-2H-pyran-4-yl)amino)-1H-indol-5-yl)acetamide]
[2]
  EC50: ≤ 300 nM

## CCN(CC)C(=O)Cc1cc(NCc2ccccc2)c2[nH]c(-c3ccccc3)cc2c1 [Example 14, 2-(7-(benzylamino)-2-phenyl-1H-indol-5-yl)-N,N-diethylacetamide]
[2]
  EC50: 300 to 1000 nM
[3]
  EC50: ≤ 100 nM
[4]
  EC50: ≤ 100 nM
[5]
  EC50: ≤ 100 nM
[6]
  EC50: ≤ 100 nM
[7]
  EC50: ≤ 100 nM
[8]
  EC50: ≤ 100 nM
[9]
  EC50: 100 to 1000 nM
[10]
  EC50: 100 to 1000 nM

## CCC(O)(CC)COCCOCc1cc(NC2CCOCC2)c2[nH]c(-c3ccccc3)cc2c1 [Example 32, 3-((2-((2-phenyl-7-((tetrahydro-2H-pyran-4-yl)amino)-1H-indol-5-yl)methoxy)ethoxy)methyl)pentan-3-ol]
[2]
  EC50: ≤ 300 nM

## O=C(NC1CC1)c1cc(NC2CCOCC2)c2[nH]c(-c3ccccc3)cc2c1 [Example 6, N-cyclopropyl-2-phenyl-7-((tetrahydro-2H-pyran-4-yl)amino)-1H-indole-5-carboxamide]
[2]
  EC50: ≤ 300 nM

## CCN(CC)C(=O)Cc1cc(NC2CCCC2)c2[nH]c(-c3ccccc3)cc2c1 [Example 11, 2-(7-(cyclopentylamino)-2-phenyl-1H-indol-5-yl)-N,N-diethylacetamide]
[2]
  EC50: 300 to 1000 nM

## CCN(CC)C(=O)Cc1cc(NCc2ccncc2)c2[nH]c(-c3ccccc3)cc2c1 [Example 13, N,N-diethyl-2-(2-phenyl-7-((pyridin-4-ylmethyl)amino)-1H-indol-5-yl)acetamide]
[2]
  EC50: 300 to 1000 nM

## CS(=O)(=O)NCCOCc1cc(NC2CCOCC2)c2[nH]c(-c3ccccc3)cc2c1 [Example 59, N-(2-((2-phenyl-7-((tetrahydro-2H-pyran-4-yl)amino)-1H-indol-5-yl)methoxy)ethyl)methanesulfonamide]
[2]
  EC50: ≤ 300 nM

## COCCOCCN(C)C(=O)c1cc(NC2CCOCC2)c2[nH]c(-c3ccccc3)cc2c1 [Example 52, N-(2-(2-methoxyethoxy)ethyl)-N-methyl-2-phenyl-7-((tetrahydro-2H-pyran-4-yl)amino)-1H-indole-5-carboxamide]
[2]
  EC50: > 1000 nM

## CCNS(=O)(=O)c1cc(NC2CCCC2)c2[nH]c(-c3ccccc3)cc2c1 [Example 22, 7-(cyclopentylamino)-N-ethyl-2-phenyl-1H-indole-5-sulfonamide]
[2]
  EC50: 300 to 1000 nM
[3]
  EC50: ≤ 100 nM
[4]
  EC50: ≤ 100 nM
[5]
  EC50: 100 to 1000 nM
[6]
  EC50: ≤ 100 nM
[7]
  EC50: 100 to 1000 nM
[8]
  EC50: ≤ 100 nM
[9]
  EC50: 100 to 1000 nM
[10]
  EC50: 100 to 1000 nM

## c1ccc(-c2cc3cc(COCCN4CCSCC4)cc(NC4CCOCC4)c3[nH]2)cc1 [Example 46, 2-phenyl-N-(tetrahydro-2H-pyran-4-yl)-5-((2-thiomorpholinoethoxy)methyl)-1H-indol-7-amine]
[2]
  EC50: ≤ 300 nM

## COCCNCc1cc(NC2CCOCC2)c2[nH]c(-c3ccccc3)cc2c1 [Example 50, 5-(((2-methoxyethyl)amino)methyl)-2-phenyl-N-(tetrahydro-2H-pyran-4-yl)-1H-indol-7-amine]
[2]
  EC50: ≤ 300 nM

## COCCNC(=O)c1cc(NC2CCOCC2)c2[nH]c(-c3ccccc3)cc2c1 [Example 49, N-(2-methoxyethyl)-2-phenyl-7-((tetrahydro-2H-pyran-4-yl)amino)-1H-indol-5-carboxamide]
[2]
  EC50: ≤ 300 nM

## O=C(Cc1cc(NCc2ccccc2)c2[nH]c(-c3ccccc3)cc2c1)NC1CC1 [Example 17, 2-(7-(benzylamino)-2-phenyl-1H-indol-5-yl)-N-cyclopropylacetamide]
[2]
  EC50: ≤ 300 nM

## OCCCOCCOCc1cc(NC2CCOCC2)c2[nH]c(-c3ccccc3)cc2c1 [Example 34, 3-(2-((2-phenyl-7-((tetrahydro-2H-pyran-4-yl)amino)-1H-indol-5-yl)methoxy)ethoxy)propan-1-ol]
[2]
  EC50: ≤ 300 nM

## CC1(O)CCC(OCc2cc(NC3CCOCC3)c3[nH]c(-c4ccccc4)cc3c2)CC1 (stereo not shown) [Example 36, 1-methyl-4-((2-phenyl-7-((tetrahydro-2H-pyran-4-yl)amino)-1H-indol-5-yl)methoxy)cyclohexan-1-ol]
[2]
  EC50: ≤ 300 nM
[3]
  EC50: ≤ 100 nM
[4]
  EC50: ≤ 100 nM
[5]
  EC50: 100 to 1000 nM
[6]
  EC50: ≤ 100 nM
[7]
  EC50: 100 to 1000 nM
[8]
  EC50: ≤ 100 nM
[9]
  EC50: 100 to 1000 nM
[10]
  EC50: 100 to 1000 nM
